# pIC50: −log10 of the molar value.
# Legend:
# [1] = molecular target: Recombinant three-repeat microtubule-binding domain (3R-MBD) of tau protein (Homo sapiens, UniProt P10636); assay: Determination of tau aggregation inhibitory activity (thioflavin T fluorescence, heparin-induced); type: biochemical; details: for pIC50: 10 μM tau 3R-MBD, 10 μM heparin, 37° C. for 16 hours, thioflavin T; for Emax: 16 h, maximum inhibition at the concentrations used (0.1, 0.3, 1, 3, and 10 μM)
# Method: Recombinant three-repeat microtubule-binding domain (3R-MBD) of tau protein was expressed in E. coli and was purified and used for the experiment. The purified tau solution was diluted with a 50 mM Tris-HCl buffer (pH 7.6) to a final concentration of 10 μM. The test compounds were prepared using dimethylsulfoxide (hereinafter also referred to as DMSO) at 20-fold of their final concentrations and added to the tau solution so that the DMSO concentration would be 5%. To this solution, heparin was added so that the final concentration would be 10 μM and the plate was left to stand at 37° C. for 16 hours. Thioflavin T was added to the plate so that the concentration would be 10 μM and the fluorescence intensity was measured with a fluorescence plate reader (PerkinElmer, Inc.)(excitation wavelength: 440 nm; fluorescence wavelength: 486 nm). The final concentration of each compound at the time of measurement was set at 0.1, 0.3, 1, 3, and 10 μM. The sample to which only DMSO was added was used as a negative control and its fluorescence intensity was taken as 0% inhibitory activity to determine the 50% inhibitory concentration (IC50) of each compound.
# [2] = Concentration measurement in brain after oral administration; type: in vivo; details: ICR mice (male, 7 weeks old), single dose of 5 mg/kg, whole brain, LC/MS/MS
# Method: Each of the compounds of the present invention shown in Tables 40 and 41 and the compound of Example 2 of JP 2012-229208 A was orally administered to ICR mice (male, 7 weeks old) in a single dose of 5 mg/kg. At 3, 6 and 9 hours after the administration, 1, 3, 6 and 9 hours after the administration, or 1, 3, 6, 9 and 24 hours after the administration, the mice were subjected to perfusion by infusing physiological saline into the heart under inhalational anesthesia with isoflurane, and the whole brain was harvested. Physiological saline was added to the harvested brain in an amount equal to twice the wet weight of the brain and the brain was homogenized. Then, an equal volume of methanol was added thereto, and the mixture was deproteinized. The concentration of each compound in the sample was measured by LC/MS/MS.
# Sequence of Recombinant three-repeat microtubule-binding domain (3R-MBD) of tau protein (P10636 2-758 limits assumed): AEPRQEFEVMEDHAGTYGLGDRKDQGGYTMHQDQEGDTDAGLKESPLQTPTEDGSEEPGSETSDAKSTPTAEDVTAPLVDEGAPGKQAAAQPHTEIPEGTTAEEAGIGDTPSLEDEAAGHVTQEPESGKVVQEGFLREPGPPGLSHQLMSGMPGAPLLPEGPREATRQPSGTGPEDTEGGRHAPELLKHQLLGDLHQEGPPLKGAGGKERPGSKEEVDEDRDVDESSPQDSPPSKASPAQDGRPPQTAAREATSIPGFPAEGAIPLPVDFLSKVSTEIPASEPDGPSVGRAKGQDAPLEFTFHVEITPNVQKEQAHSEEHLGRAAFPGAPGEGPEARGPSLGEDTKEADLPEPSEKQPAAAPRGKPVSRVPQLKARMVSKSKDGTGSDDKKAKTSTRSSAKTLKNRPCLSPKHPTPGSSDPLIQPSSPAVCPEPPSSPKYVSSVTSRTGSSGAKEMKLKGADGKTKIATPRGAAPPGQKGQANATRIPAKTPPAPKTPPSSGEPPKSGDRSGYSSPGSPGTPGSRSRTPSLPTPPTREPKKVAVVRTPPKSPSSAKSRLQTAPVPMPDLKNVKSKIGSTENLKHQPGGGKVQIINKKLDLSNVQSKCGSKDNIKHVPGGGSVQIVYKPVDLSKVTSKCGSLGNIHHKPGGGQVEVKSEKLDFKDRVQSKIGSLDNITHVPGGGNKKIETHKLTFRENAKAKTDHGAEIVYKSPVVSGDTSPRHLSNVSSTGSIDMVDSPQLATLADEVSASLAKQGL
SMILES,pIC50 [1],Emax [1] [%],AUC0-24 h in brain [2] [ng · hr/g-tissue],AUC0-9 h in brain [2] [ng · hr/g-tissue]
"COc1cc(OCCN2CCOCC2)ccc1/C=C/c1cc(/C=C/c2cccn2C)[nH]n1 [Example 21-2, 4-[2-[3-methoxy-4-[(E)-2-[5-[(E)-2-(1-methylpyrrol-2-yl)vinyl]-1H-pyrazol-3-yl]vinyl]phenoxy]ethyl]morpholine]",–,89,–,–
"Cn1cccc1/C=C/c1cc(/C=C/c2ccc(OCc3ccccn3)cc2F)n[nH]1 [Example 19-4, 2-[[3-fluoro-4-[(E)-2-[5-[(E)-2-(1-methylpyrrol-2-yl)vinyl]-1H-pyrazol-3-yl]vinyl]phenoxy]methyl]pyridine]",6.29,–,3499,–
"CN1CCN(c2ccc(/C=C/c3cc(/C=C/c4ccc5ccn(C)c5c4)[nH]n3)cc2)CC1 [Example 18-2, 1-methyl-6-[(E)-2-[3-[(E)-2-[4-(4-methylpiperazin-1-yl)phenyl]vinyl]-1H-pyrazol-5-yl]vinyl]indole]",–,–,9781,–
"CN1CCCN(c2ccc(/C=C/c3cc(/C=C/c4ccc5ccn(C)c5c4)[nH]n3)cc2)CC1 [Example 43-2, 1-methyl-6-[(E)-2-[3-[(E)-2-[4-(4-methyl-1,4-diazepan-1-yl)phenyl]vinyl]-1H-pyrazol-5-yl]vinyl]indole]",–,92,–,–
"CN1CCCN(c2ccc(/C=C/c3cc(/C=C/c4cccn4C)[nH]n3)cc2)CC1 [Example 28-2, 1-methyl-4-[4-[(E)-2-[5-[(E)-2-(1-methylpyrrol-2-yl)vinyl]-1H-pyrazol-3-yl]vinyl]phenyl]-1,4-diazepane]",–,93,–,–
"Cn1cccc1/C=C/c1cc(/C=C/c2ccc(OCc3ccccn3)cc2)n[nH]1 [Example 20-3, 2-[[4-[(E)-2-[5-[(E)-2-(1-methylpyrrol-2-yl)vinyl]-1H-pyrazol-3-yl]vinyl]phenoxy]methyl]pyridine]",6.26,89,5306,–
"C(=C\c1cc(/C=C/c2ccc3cc[nH]c3c2)[nH]n1)/c1cccc(OCCN2CCOCC2)c1 [Example 53-2, 4-[2-[3-[(E)-2-[5-[(E)-2-(1H-indol-6-yl)vinyl]-1H-pyrazol-3-yl]vinyl]phenoxy]ethyl]morpholine]",6.08,–,–,–
"CN1CCN(c2ccc(/C=C/c3cc(/C=C/c4cccn4C)[nH]n3)cc2)CC1 [Example 27-3, 1-methyl-4-[4-[(E)-2-[5-[(E)-2-(1-methylpyrrol-2-yl)vinyl]-1H-pyrazol-3-yl]vinyl]phenyl]piperazine]",–,91,1302,–

# The remaining lines, values ahead:
pIC50 [1],Emax [1] [%],AUC0-24 h in brain [2] [ng · hr/g-tissue],AUC0-9 h in brain [2] [ng · hr/g-tissue],SMILES
6.19,90,–,–,"Cc1cc(OCc2ccccn2)ccc1/C=C/c1cc(/C=C/c2cccn2C)[nH]n1 [Example 32-5, 2-[[3-methyl-4-[(E)-2-[5-[(E)-2-(1-methylpyrrol-2-yl)vinyl]-1H-pyrazol-3-yl]vinyl]phenoxy]methyl]pyridine]"
–,–,24639,–,"COc1cc(OCCN2CCOCC2)ccc1/C=C/c1cc(/C=C/c2ccc3ccn(C)c3c2)[nH]n1 [Example 14-2, 4-[2-[3-methoxy-4-[(E)-2-[5-[(E)-2-(1-methylindol-6-yl)vinyl]-1H-pyrazol-3-yl]vinyl]phenoxy]ethyl]morpholine]"
–,–,–,869,"COc1cc(OCCc2ccccn2)ccc1/C=C/c1cc(/C=C/c2ccc3ccn(C)c3c2)[nH]n1 [Example 44-2, 6-[(E)-2-[3-[(E)-2-[2-methoxy-4-[2-(2-pyridyl)ethoxy]phenyl]vinyl]-1H-pyrazol-5-yl]vinyl]-1-methylindole]"
6.19,–,–,–,"Cn1ccc2ccc(/C=C/c3cc(/C=C/c4ccc(OCc5ccccn5)cc4)n[nH]3)cc21 [Example 17-2, 1-methyl-6-[(E)-2-[3-[(E)-2-[4-(2-pyridylmethoxy)phenyl]vinyl]-1H-pyrazol-5-yl]vinyl]indole]"
6.08,–,–,–,"COc1cc(OCc2ccccn2)ccc1/C=C/c1cc(/C=C/c2ccnn2C)[nH]n1 [Example 42-2, 2-[[3-methoxy-4-[(E)-2-[5-[(E)-2-(2-methylpyrazol-3-yl)vinyl]-1H-pyrazol-3-yl]vinyl]phenoxy]methyl]pyridine]"
6.08,–,–,–,"COc1cc(OCc2ccccn2)ccc1/C=C/c1cc(/C=C/c2cccc(C)n2)[nH]n1 [Example 25-2, 2-[(E)-2-[3-[(E)-2-[2-methoxy-4-(2-pyridylmethoxy)phenyl]vinyl]-1H-pyrazol-5-yl]vinyl]-6-methylpyridine]"
6.22,–,–,–,"Cn1ccc2ccc(/C=C/c3cc(/C=C/c4ccc(OCc5ccccn5)cc4F)n[nH]3)cc21 [Example 16-2, 6-[(E)-2-[3-[(E)-2-[2-fluoro-4-(2-pyridylmethoxy)phenyl]vinyl]-1H-pyrazol-5-yl]vinyl]-1-methyl indole]"
6.23,92,–,–,"COc1cc(OCc2ccccn2)ccc1/C=C/c1cc(/C=C/c2ccc(C)n2C)[nH]n1 [Example 23-2, 2-[[4-[(E)-2-[5-[(E)-2-(1,5-dimethylpyrrol-2-yl)vinyl]-1H-pyrazol-3-yl]vinyl]-3-methoxyphenoxy]methyl]pyridine]"
6.18,90,–,458,"COc1cc(OCc2ccccn2)ccc1/C=C/c1cc(/C=C/c2cccn2C)[nH]n1 [Example 22-2, 2-[[3-methoxy-4-[(E)-2-[5-[(E)-2-(1-methylpyrrol-2-yl)vinyl]-1H-pyrazol-3-yl]vinyl]phenoxy]methyl]pyridine]"
